Measurements from patent publication US8895738B2, “Mesoionic pyrido [1, 2-A] pyrimidine pesticides” (E I du Pont de Nemours and Company, priority 2010, dated 2014).
Counter-ions that a name gives are not always drawn.

Legend:
Format in all cases: in vivo
[1] = system: maize plants (Prairie Hybrid 2431 organic field corn); assay: Test P: vigor (height) of maize plants in greenhouse in absence of pest pressure, surface drench
Description: In this test, the effect of a compound of the invention on the vigor of maize plants grown in a greenhouse in absence of pest pressure was measured.
Single maize seeds (Prairie Hybrid 2431 organic field corn) were planted 2.0 to 2.5 cm deep in 10 cm×10 cm×8 cm plastic pots containing either Redi-Earth sphagnum peat moss-based potting media (Sun Gro Horticulture Canada Ltd., Vancouver, British Columbia) or a 50/50 mixture of Matapeake soil and sand. Seeded pots were initially watered to a 5 cm depth and placed in a growth chamber maintained at 25° C. within a 16 h light/8 h dark photoperiod. The pots were watered whenever the soil surface dried.
After 8 days from initial watering, the potted plants were treated by applying as a surface drench 40 mL of an aqueous treatment mixture containing either 0.2 or 2.5 mg of Compound 3. To the pots of untreated control plants, 40 mL of tap water was similarly applied. Treatments and untreated controls were replicated 10 times.
Treated and untreated plants were then arranged in a complete randomized block design in a greenhouse maintained at 25.6-27.8° C. during the day and 23.0-25.0° C. at night. Supplemental lighting was added when outside light levels dropped below 200 watts m^−2 during a 16-h growing period, except that no supplemental lighting was activated when outside light energy had already accumulated to more than 5000 w h m^−2 during the growing period. Greenhouse shading closed when outside light levels rose above 600 watts m^−2 for more than 20 minutes.
No modifications to relative humidity were made. Tap water irrigation was provided twice daily as needed to maintain soil moisture. Every second or third day the plants were fertilized with irrigation water containing 100 ppm N—P—K from Peters® soluble 20-20-20 general purpose fertilizer (The Scotts Company, Marysville, Ohio, U.S.A.). The applied nutrient levels were considered less that ideal for optimal growth of maize plants.
Plant height was determined at 0, 7, 14, 21 and 28 days after treatment by measuring the length from the vertically extended longest leaf tip to the soil surface. The heights averaged across the 10 replicates are listed in Test Tables 1 and 2 for plants grown in Redi-Earth soil and Matapeake Soil/Sand, respectively.

[2] = system: Rice plants (indica cultivar ‘MTU1010’); assay: Test I: vigor of rice crop outdoors, foliar application, West Godavri; conditions: 20 days after application, Nilaparvata lugens level high
Description: (§1) To evaluate the effect of application of a compound of the invention on the vigor of rice crops grown under outdoor conditions, Tests 1 through 0 were conducted. “a.i.” refers to the amount of active ingredient applied.
Rice plants (indica cultivar ‘MTU1010’) were transplanted into flooded 5 m×3 m test plots of clay loam soil in the delta region of the West Godavri district, Andhra Pradesh, India, during the rainy season, and grown using local agronomic practices. After 47 days, aqueous mixtures of Compound 3 were applied to the foliage of the rice plants at 12.5, 25 or 50 g a.i./ha in a spray volume of 387 L/ha using a backpack sprayer. Plots of unsprayed rice plants were used as controls. Each treatment and control was replicated three times, and the plots were arranged in a randomized complete block design. At the time of application of Compound 3, the pest level of rice brown planthopper (Nilaparvata lugens) was high, i.e. much above the level considered economically significant.
The crop vigor of the rice plants in each plot was visually rated based on general external appearance (e.g., plant height) 20 days after application on a 0 to 200% scale, wherein the plants in untreated control plots were considered to represent 100%, and the results for the three replicates for each treatment were averaged. More than 100% means the plants in a treated plot were more vigorous than those in the untreated control plot, while less than 100% means the plants in the treated pot were less vigorous.

[3] = system: Rice plants (indica cultivar); assay: Test M: vigor of direct seeded rice crop outdoors, An Giang, Vietnam; conditions: all application rates (6.25, 12.5, 25 or 50 g a.i./ha) with 30 g a.i./ha indoxacarb and 20 g a.i./ha chlorantraniliprole; 18 days after application; Nilaparvata lugens level very low
Description: as §1
Rice plants (indica cultivar) were direct seeded into flooded 6 m×5 m test plots of clay loam soil in An Giang Province of Vietnam shortly before the monsoon, and grown using local agronomic practices. After 42 days, at the beginning of the wet season, aqueous mixtures containing 30 g a.i./ha of indoxacarb in form of STEWARD® Insecticide, 20 g a.i./ha of chlorantraniliprole, and 6.25, 12.5, 25 or 50 g a.i./ha of Compound 3 were applied to the foliage of the rice plants at in a spray volume of 400 L/ha using a motorized sprayer. Plots of control rice plants were sprayed with an aqueous mixture containing 30 g a.i./ha of indoxacarb in form of STEWARD® Insecticide and 20 g a.i./ha of chlorantraniliprole (i.e. no Compound 3). Each treatment and control was replicated three times, and the plots were arranged in a randomized complete block design. At the time of application of Compound 3, the pest level of rice brown planthopper (Nilaparvata lugens) was very low.

[4] = system: potato leafhopper (Empoasca fabae); assay: Test E: control of potato leafhopper on Soleil bean plant, contact and/or systemic; conditions: 144 h, assessed after 6 days, read-out: control efficacy: mortality
Description: For evaluating control of potato leafhopper (Empoasca fabae) through contact and/or systemic means, the test unit consisted of a small open container with a 5-6-day-old Soleil bean plant (primary leaves emerged) inside. White sand was added to the top of the soil and one of the primary leaves was excised prior to application.
Test compounds were formulated and sprayed at 250, 50, 10 and/or 2 ppm, and the tests were replicated three times as described for Test A. After spraying, the test units were allowed to dry for 1 h before they were post-infested with 5 potato leafhoppers (18-21-day-old adults). A black, screened cap was placed on the top of each test unit, and the test units were held for 6 days in a growth chamber at 24° C. and 70% relative humidity. Each test unit was then visually assessed for insect mortality.

[5] = Matapeake Soil/Sand, 0.2 mg a.i./pot
[6] = Matapeake Soil/Sand, 2.5 mg a.i./pot
[7] = Redi-Earth Soil, 0.2 mg a.i./pot
[8] = Redi-Earth Soil, 2.5 mg a.i./pot

O=c1c(-c2cccc(C(F)(F)F)c2)c([O-])[n+](Cc2cncnc2)c2ccccn12 [Compound 3, 2-hydroxy-4-oxo-1-(5-pyrimidinylmethyl)-3-[3-(trifluoromethyl)phenyl]-4H-pyrido[1,2-a]pyrimidinium inner salt]
Height (cm) at Days after Treatment 0 days [1, 5]: 22 cm | Height (cm) at Days after Treatment 7 days [1, 5]: 49 cm | Height (cm) at Days after Treatment 14 days [1, 5]: 66 cm | Height (cm) at Days after Treatment 21 days [1, 5]: 76 cm | Height (cm) at Days after Treatment 28 days [1, 5]: 87 cm | Height (cm) at Days after Treatment 0 days [1, 6]: 22 cm | Height (cm) at Days after Treatment 7 days [1, 6]: 46 cm | Height (cm) at Days after Treatment 14 days [1, 6]: 65 cm | Height (cm) at Days after Treatment 21 days [1, 6]: 78 cm | Height (cm) at Days after Treatment 28 days [1, 6]: 88 cm | Height (cm) at Days after Treatment 0 days [1, 7]: 22 cm | Height (cm) at Days after Treatment 7 days [1, 7]: 53 cm | Height (cm) at Days after Treatment 14 days [1, 7]: 85 cm | Height (cm) at Days after Treatment 21 days [1, 7]: 111 cm | Height (cm) at Days after Treatment 28 days [1, 7]: 131 cm | Height (cm) at Days after Treatment 0 days [1, 8]: 21 cm | Height (cm) at Days after Treatment 7 days [1, 8]: 53 cm | Height (cm) at Days after Treatment 14 days [1, 8]: 85 cm | Height (cm) at Days after Treatment 21 days [1, 8]: 111 cm | Height (cm) at Days after Treatment 28 days [1, 8]: 137 cm | growth enhancing effect on maize plants ([1]; pest-free environment, nutrient constrained, both soils, 0.2 or 2.5 mg per pot): little growth enhancing effect was noticeable | crop vigor (visual rating, 0 to 200% scale, untreated = 100%) ([2]; 12.5 g a.i./ha foliar): 140% | crop vigor (visual rating, 0 to 200% scale, untreated = 100%) ([2]; 25 g a.i./ha foliar): 143% | crop vigor (visual rating, 0 to 200% scale, untreated = 100%) ([2]; 50 g a.i./ha foliar): 143% | crop vigor (visual rating, 0 to 200% scale, control = 100%) [3]: 100% | mortality at 10 ppm ([4]; sprayed at 10 ppm): ≥ 80% | mortality at 50 ppm ([4]; sprayed at 50 ppm): ≥ 80% | mortality at 250 ppm ([4]; sprayed at 250 ppm): ≥ 80%
